Data reported in US11208382B2, “Entinostat-containing compound, crystal form of compound thereof, and preparation method therefor and pharmaceutical composition thereof” (Hangzhou SoliPharma Co., Ltd., priority 2017, dated 2021).
Values belong to the compound of their own block, whether it stands above or below them.

What was measured:
Format in all cases: physicochemical
[1] = chemical stability test by HPLC analysis
Procedure: HPLC data were collected on Ultimate 3000 under the following conditions: column, YMC-Pack ODS-AQ (4.6*250 mm*5 μm); column temperature, 40° C.; flow rate, 1.5 mL/min; detection wavelength, 254 nm; injection volume 3 uL; operation time, 40 min; mobile phase, a mixture of acetonitrile: 10 mM monopotassium phosphate=1:2. 1. Appropriate amounts of entinostat and Compound A in the present invention were used respectively for HPLC analysis, the purity of the compounds and the maximum single impurity (RRT=1.403) were calculated. 2. Chemical stability tests of entinostat and Compound A in the present invention were performed. The conditions were as follows: room temperature, high temperature (40° C.), high humidity (75% RH), and acceleration (40° C.-75% RH), and the storage time is 14 days. Using HPLC analysis, the change of maximum single impurity (RRT=1.403), the change of the main ingredient level and the change of total impurities number were studied.

[2] = phase stability test of the crystalline forms; details: for phases after storage: stored at room temperature and high temperature for 14 days
Procedure: X-ray powder diffraction (XRPD): performed on Bruker D8 Advance diffractometer. The scan range 3-40° 20, step size 0.02020, and speed 0.2 s/step. Appropriate amounts of Crystalline Form of Compound A and Crystalline Form of Compound B in the present invention were used respectively for the phase stability test. The conditions were room temperature and high temperature (50° C.).

[3] = apparent water solubility test; details: for solubility at 3 min: thermodynamic from solid, apparent water solubility, water bath 25° C.±2° C., visual check for clear solution
Procedure: Entinostat, Compound A and Compound B in the present invention were tested for the apparent water solubility, and the operations were as follows:
Placed 3 mg of sample in a 100 mL Erlenmeyer flask in a water bath at 25° C.±2° C., added water by doubling, stirred at about 200 rpm/min, checked visually if the solution was clear. The interval between each addition of water was 3 minutes, and the maximum amount of water to add was 60 mL.

[4] = High temperature (40° C.), 14 days, first line so headed (r10)
[5] = High temperature, 14 days, second line so headed (r12)
[6] = Speeded-up (acceleration, 40° C.-75% RH), 14 days
[7] = High temperature (50° C.), 7 days
[8] = High temperature (50° C.), 14 days
[9] = High temperature (40° C.), 14 days, first line so headed (r10), listed as Entinostat
[10] = High temperature, 14 days, second line so headed (r12), listed as Entinostat
[11] = Room temperature, 0 days, listed as Entinostat
[12] = Room temperature, 14 days, listed as Entinostat
[13] = Speeded-up (acceleration, 40° C.-75% RH), 14 days, listed as Entinostat

- Main ingredient (%) [1, 4]: 99.9%
- Number of impurities (≥0.04%) [1, 4]: 0
- RRT = 1.403 (%) maximum single impurity [1, 4]: 0.11%
- Main ingredient (%) [1, 5]: 99.9%
- Number of impurities (≥0.04%) [1, 5]: 0
- RRT = 1.403 (%) maximum single impurity [1, 5]: 0.11%
- Main ingredient (%) ([1]; Room temperature, 0 days): 99.9%
- Number of impurities (≥0.04%) ([1]; Room temperature, 0 days): 0
- RRT = 1.403 (%) maximum single impurity ([1]; Room temperature, 0 days): 0.12%
- Main ingredient (%) ([1]; Room temperature, 14 days): 99.9%
- Number of impurities (≥0.04%) ([1]; Room temperature, 14 days): 0
- RRT = 1.403 (%) maximum single impurity ([1]; Room temperature, 14 days): 0.13%
- Main ingredient (%) [1, 6]: 99.9%
- Number of impurities (≥0.04%) [1, 6]: 0
- RRT = 1.403 (%) maximum single impurity [1, 6]: 0.13%
- Crystal form after storage [2, 7]: unchanged
- Crystal form after storage [2, 8]: unchanged
- Crystal form after storage ([2]; Room temperature, 7 days): unchanged
- Crystal form after storage ([2]; Room temperature, 14 days): unchanged
- phases after storage [2]: unchanged
Compound: Nc1ccccc1NC(=O)c1ccc(CNC(=O)OCc2cccnc2)cc1 [Compound A]

- Crystal form after storage [2, 7]: unchanged
- Crystal form after storage [2, 8]: unchanged
- Crystal form after storage ([2]; Room temperature, 7 days): unchanged
- Crystal form after storage ([2]; Room temperature, 14 days): unchanged
- phases after storage [2]: unchanged
- solubility at 3 min [3]: 1010 µg/mL
Compound: Nc1ccccc1NC(=O)c1ccc(CNC(=O)OCc2cccnc2)cc1.O=C(O)/C=C\C(=O)O [Compound B]

- impurity at RRT=1.403, main ingredient and number of impurities after storage ([1]; 14 days under room temperature, high temperature, high humidity and acceleration): essentially unchanged
- Main ingredient (%) [1, 9]: 98.4%
- Number of impurities (≥0.04%) [1, 9]: 5
- RRT = 1.403 (%) maximum single impurity [1, 9]: 1.44%
- Main ingredient (%) [1, 10]: 98.4%
- Number of impurities (≥0.04%) [1, 10]: 5
- RRT = 1.403 (%) maximum single impurity [1, 10]: 1.43%
- Main ingredient (%) [1, 11]: 98.4%
- Number of impurities (≥0.04%) [1, 11]: 4
- RRT = 1.403 (%) maximum single impurity [1, 11]: 1.42%
- Main ingredient (%) [1, 12]: 98.4%
- Number of impurities (≥0.04%) [1, 12]: 4
- RRT = 1.403 (%) maximum single impurity [1, 12]: 1.42%
- Main ingredient (%) [1, 13]: 98.4%
- Number of impurities (≥0.04%) [1, 13]: 5
- RRT = 1.403 (%) maximum single impurity [1, 13]: 1.41%
- solubility at 3 min [3]: < 50 µg/mL
Compound: Nc1ccccc1NC(=O)c1ccc(CNC(=O)OCc2cccnc2)cc1 [entinostat, N-(2-aminophenyl)-4-[N-(pyridin-3-yl)methoxycarbonyllaminomethyl]benzamide]

- solubility in water (in words) ([3]; finding of the inventors on prior-art polymorphs, no method given): low
Compound: Nc1ccccc1NC(=O)c1ccc(CNC(=O)OCc2cccnc2)cc1 [polymorph A, N-(2-aminophenyl)-4-[N-(pyridin-3-yl)methoxycarbonyllaminomethyl]benzamide]
